Laboratory results published in PMC11357992, “Non-invasive mapping of systemic neutrophil dynamics upon cardiovascular injury” (Nature Cardiovascular Research, 2023).
Values joined by “and” are separate entries in the source; they are usually repeats but may differ in a detail not shown here. Equal entries are not always repeated. Where no end group is shown, it is not given here. Side-chain parts run from the residue outwards. rhodamine‑labelled PEGylated perfluoro‑15‑crown‑5 ether nanoemulsion = not defined here; carboxyfluorescein = N-terminal fluorescence label (CF)

Key:
murine neutrophils = assay: Phagocytosis of FITC-labeled E. coli particles by murine neutrophils after mNPPFC injection; assay type: in vivo, mouse; conditions: in the presence of the targeting PFCs
Procedure: […] per kg BW ^mNPPFCs or saline were injected i.v., followed by 100 µl FITC-labeled Escherichia coli particles (Thermo Fisher) 2 h later. […] Thereafter, FITC labeling was determined by flow cytometry.
Extended Data Fig. 9 Impact of ^mNPPFCs on murine neutrophils. a, Differentially expressed genes (DEGs) identified by bulk RNA sequencing of murine blood neutrophils after intravenous injection of ^mNPPFCs, ^ConPFCs or NaCl (Ctrl) as control. Volcano plots of DEGs for murine neutrophils of animals treated with saline compared to ^mNPPFCs (left), or ^ConPFCs compared to ^mNPPFC (right). […] BF = Bonferroni corrected p-values of the false discovery rate. In total 25655 RNA transcripts were analyzed. b, Cell surface expression of CD11b, CD62L, CD63 on blood derived murine neutrophils after intravenous application of NaCl (Ctrl) or ^mNPPFCs. As a positive control, matrigel doped with 50 µg LPS was subcutaneously implanted into the neck of mice and after 24 h, neutrophils were isolated from the blood and analyzed by flow cytometry. c, Impact of ^mNPPFC incubation on neutrophil migration, phagocytosis and release of reactive oxygen species (ROS). […]

bone marrow neutrophils = assay: In situ labeling of bone marrow neutrophils and tracking after MI, 1H/19F MRI of bone marrow; assay type: in vivo, mouse; conditions: Depletion of neutrophils by Ly6G Ab injection 48 and 24 h prior to mNPPFC injection; 24 h after injection; individual experiments
murine blood leukocytes = assay: Ex vivo uptake of mNPPFCs/ConPFCs by murine immune cells, flow cytometry; assay type: cell-based, mouse; set-up: Basal mNPPFC Uptake, flow cytometry / Stimulated mNPPFC Uptake, flow cytometry: unit not given here; conditions: for Stimulated mNPPFC Uptake, flow cytometry: LPS-stimulated conditions; for Stimulated mNPPFC Uptake, flow cytometry / Basal mNPPFC Uptake, flow cytometry: individual experiments; for Basal mNPPFC Uptake, flow cytometry: basal conditions
Procedure: Erythrocytes were lysed by adding a fourfold volume of NH4Cl buffer (pH 7.4). After 10 min of incubation, samples were centrifuged at 350g for 10 min at 20 °C. For isolation of neutrophils from the bone marrow, mice were killed by cervical dislocation, and bones were dissected. Afterward, cells were isolated from the bone marrow using established protocols.
Flow cytometry was performed with a FACSCanto II (BD Biosciences) or LSRFortessa (BD Biosciences). Cells were gated with appropriate FSC–SSC settings and thresholds for excluding debris. To omit dead cells, samples were stained with 1 µg ml^−1 DAPI (Merck). For analysis, cells were gated with FACSDiva 6 or FlowJo 7.1, and MFI and/or the number of positive cells was determined, depending on the experiment.
Human immune cells were discriminated by staining for CD45 (BioLegend, clone HI30), CD11b (BD Biosciences, clone ICRF44), CD14 (BioLegend, clone M5E2) and CD16 (BD Biosciences, clone 3G8) (lymphocytes, CD45^+CD11b^−CD16^−; classical monocytes, CD45^+CD11b^+CD14^++CD16^−; non-classical monocytes, CD45^+CD11b^+CD14^+CD16^++; neutrophils, CD45^+CD11b^+CD16^+). Murine immune cells were discriminated by staining for CD45 (BD Biosciences, clone 30-F11), CD11b (BioLegend, clone M1/70), Ly6G (BD Biosciences, clone 1A8), Ly6C (BioLegend, clone HK1.4) and F4/80 (BioLegend, clone BM8) (lymphocytes, CD45^+CD11b^−Ly6G^−; classical monocytes, CD45^+CD11b^+Ly6G^−Ly6C^hi; non-classical monocytes, CD45^+CD11b^+Ly6G^−Ly6C^lo; neutrophils, CD45^+CD11b^+Ly6G^+; eosinophils, CD45^+CD11b^+Ly6G^+SSC^hiFSC^lo). Both human and murine cells were stained for 20 min at 4 °C, followed by washing with 200 µl MACS buffer.
If not mentioned otherwise, neutrophil-specific peptide or Con (both at 1 µg ml^−1) were incubated for 20 min at 4 °C, while ^NPPFCs or ^ConPFCs were incubated at a concentration of 10 µl ml^−1 for the indicated period of time, followed by two washing steps with 200 µl MACS buffer.
A total of 1 × 10^6 cells were incubated with 10 µl of the emulsion over a period of 80 min at 37 °C. At distinct time points, 50 µl of the samples were transferred into 2 ml of ice-cold MACS buffer and analyzed for rhodamine fluorescence by flow cytometry.
Extended Data Fig. 2 Specific targeting of neutrophils by ^mNPPFCs. a, Flow cytometric analysis of murine blood leukocytes incubated with ^mNPPFCs over 80 min illustrating their predominant uptake by neutrophils (red) as compared to monocytes (blue) and lymphocytes (gray). b, To further validate specificity, binding of CD177 mAb as well as incorporation of ^mNPPFCs under basal and LPS-stimulated conditions were determined. Almost no binding/uptake into classical or non-classical monocytes as well as macrophages or eosinophils could be detected. […] Subsequently, cells were analyzed by ^1H/^19F MRI. Left: ^1H/^19F MRI of centrifugation tubes with neutrophils treated with ^mNPPFCs (lower panel) or ^ConPFCs (upper panel). The small neutrophil cell pellet is located at the bottom of the tube and can be identified by ^1H MRI (1st column) as slightly darker structure (arrows) compared to the bright phosphate buffer; corresponding ^19F MR images (2nd column) and superimposition of ^1H/^19F datasets (3rd column, with ^19F data color-coded in hot iron). Quantification of ^19F signals (4th column) clearly indicate substantial stronger ^19F uptake in ^mNPPFC-treated neutrophils (red) compared to cells incubated with ^ConPFCs (gray); a.u. = arbitrary units. Data are means ± SD of n = 4 (a), n = 6 (b), n = 6 (c) or n = 3-5 (d) independent experiments; * = […], ** = p < 0.01, *** = p < 0.001, verified by two-way ANOVA (a), one-way ANOVA (b) or two-sided students t-test (c, d). Source data

[1] = ex vivo, murine blood, flow cytometry, panel A raw data, replicates #1-#3

Substance: mNPPFCs: PEGylated rhodamine-labeled perfluoro-15-crown-5 ether nanoemulsion (maleimide PFCs) coupled with murine neutrophil-specific peptide mNP (carboxyfluorescein-DFYKPMPNLRITGGGC([maleimide‑PEG2000‑DSPE-rhodamine‑labelled PEGylated perfluoro‑15‑crown‑5 ether nanoemulsion]); reading uncertain; also: printed as DFYKPMPNLRIT-GGG-C)
- phagocytosis by murine neutrophils (murine neutrophils): unaltered
- 19F signal within the femur and tibia (bone marrow) (bone marrow neutrophils): 519273 and 821555 and 523902 and 983614 and 347032
- Stimulated mNPPFC Uptake, flow cytometry (murine blood leukocytes; classical monocytes): 968 and 1199 and 1888 and 792 and 1168 and 1582
- Basal mNPPFC Uptake, flow cytometry (murine blood leukocytes; classical monocytes): 1007 and 804 and 1494 and 1027 and 800 and 1292
- Stimulated mNPPFC Uptake, flow cytometry (murine blood leukocytes; eosinophils): 391 and 367 and 596 and 415 and 376 and 503
- Basal mNPPFC Uptake, flow cytometry (murine blood leukocytes; eosinophils): 880 and 341 and 789 and 755 and 384 and 656
- uptake of PFCs, lymphocytes (murine blood leukocytes; [1]): 97.9 and 103 and 102
- uptake of PFCs, monocytes (murine blood leukocytes; [1]): 212 and 348 and 265
- uptake of PFCs, neutrophils (murine blood leukocytes; [1]): 2972 and 1641 and 1658
- Stimulated mNPPFC Uptake, flow cytometry (murine blood leukocytes; macrophages): 1176 and 1188 and 969 and 1223 and 1090 and 1085
- Basal mNPPFC Uptake, flow cytometry (murine blood leukocytes; macrophages): 945 and 874 and 865 and 808 and 877 and 873
- Stimulated mNPPFC Uptake, flow cytometry (murine blood leukocytes; neutrophils): 17100 and 16383 and 15263 and 14366 and 16180 and 12939
- Basal mNPPFC Uptake, flow cytometry (murine blood leukocytes; neutrophils): 10186 and 7521 and 8652 and 6287 and 6135 and 7209
- Stimulated mNPPFC Uptake, flow cytometry (murine blood leukocytes; non classical monocytes): 277 and 303 and 242 and 252 and 281 and 240
- Basal mNPPFC Uptake, flow cytometry (murine blood leukocytes; non classical monocytes): 138 and 192 and 152 and 172 and 167
